Source: patent publication US20250230140A1 (Viva Star Biosciences (Suzhou) Co., Ltd., priority 2021, published 2025)

Biological target: T1, LPA1 (Homo sapiens, UniProt Q92633)
T1 construct: ProLink (β-galactosidase enzyme-donor fragment); host or cells: CHO-K1 (PathHunter EDG2 β-Arrestin cell line)
Test: LPA1 calcium flux assay (LPA1 functional antagonist assay)
Assay type: cell-based
Details: PathHunter CHO-K1 EDG2 β-Arrestin cells, calcium indicator dye, stimulated with EC80 concentration of LPA, FLIPR
Procedure: The effectiveness of compounds of the present invention as LPA1 inhibitors can be determined in an LPA1 functional antagonist assay as follows.
PathHunter® CHO-K1 EDG2 β-Arrestin Cell Line (Eurofins DiscoverX Corporation, Cat #93-0644C2) were plated overnight (11,500 cells/well) in poly-D-lysine coated 384-well microplates (Corning, Cat #356697) in AssayComplete™ Cell Plating 35 Reagent (Eurofins DiscoverX Corporation, Cat #93-0563R35). Following overnight culture, cells were loaded with calcium indicator dye from the HitHunter Calcium No WashPLUS Assay kit (Eurofins DiscoverX Corporation, Cat #93-0091) for 45 minutes at 37° C. Test compounds solubilized in DMSO (Sigma, Cat #276855) on 384-well polypropylene microplates (Greiner bio-one, Cat #781280) were then diluted to intermediate concentration with assay buffer [1×HBSS calcium/magnesium (Corning, Cat #21-023-CM) and 20 mM HEPES (Corning, Cat #25-060-Cl)] before addition to cells by Agilent Velocity 11 with a final concentration of 0.4% DMSO. After compound addition, assay plates were equilibrated to room temperature for 30 minutes. Cells were then stimulated by addition of EC80 concentration of LPA (Cat #, 10010093) in assay buffer containing [1×HBSS calcium/magnesium (Corning, Cat #21-023-CM), 20 mM HEPES (Corning, Cat #25-060-Cl), and 0.1% BSA (Sigma, Cat #A8806)] using Molecular Devices FLIPR Tetra PLUS®. IC50 values were determined by Chemical and Biological Information System from ChemInnovation Software, Inc.
The compounds of this invention were tested for their activity to inhibit LPA1 as determined in an LPA1 functional antagonist assay as described herein.

T1 sequence (Q92633 whole entry, the tested form may be a part): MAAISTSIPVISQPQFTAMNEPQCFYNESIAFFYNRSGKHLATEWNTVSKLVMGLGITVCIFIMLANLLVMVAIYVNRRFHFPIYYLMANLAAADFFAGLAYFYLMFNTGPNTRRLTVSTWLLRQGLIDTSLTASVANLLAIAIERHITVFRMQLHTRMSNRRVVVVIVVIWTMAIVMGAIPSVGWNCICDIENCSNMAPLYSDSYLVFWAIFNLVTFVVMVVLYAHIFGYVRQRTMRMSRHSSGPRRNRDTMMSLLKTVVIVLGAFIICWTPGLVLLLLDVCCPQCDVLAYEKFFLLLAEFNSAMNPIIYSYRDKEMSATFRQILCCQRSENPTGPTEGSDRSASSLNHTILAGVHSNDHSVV

| IC50 [nM] | SMILES |
| --- | --- |
| < 100 | CCc1nc(-c2nnn(C)c2COc2nccc(C3CCC3)n2)ccc1N1CC[C@@H]([C@H](C)C(=O)O)C1 [Example 10] |
| 100 to 500 | CCCc1ccc(=O)n(Cc2c(-c3ccc(N4CC[C@@H]([C@H](C)C(=O)O)C4)c(CC)n3)nnn2C)c1 [Example 13, (S)-2-((S)-1-(2-ethyl-6-(1-methyl-5-((2-oxo-5-propylpyridin-1(2H)-yl)methyl)-1H-1,2,3-triazol-4-yl)pyridin-3-yl)pyrrolidin-3-yl)propanoic acid] |
| < 100 | CCCc1ccc(=O)n(Cc2c(-c3ccc(N4CC[C@@H](C(C)(C)C(=O)O)C4)c(C)n3)nnn2C)c1 [Example 15, (S)-2-methyl-2-(1-(2-methyl-6-(1-methyl-5-((2-oxo-5-propylpyridin-1(2H)-yl)methyl)-1H-1,2,3-triazol-4-yl)pyridin-3-yl)pyrrolidin-3-yl)propanoic acid] |
| 500 to 5000 | CCCc1ccc(=O)n(Cc2c(-c3ccc(N4CC[C@H](C(C)(C)C(=O)O)C4)c(CC)n3)nnn2C)c1 [Example 16, (R)-2-(1-(2-ethyl-6-(1-methyl-5-((2-oxo-5-propylpyridin-1(2H)-yl)methyl)-1H-1,2,3-triazol-4-yl)pyridin-3-yl)pyrrolidin-3-yl)-2-methylpropanoic acid] |
| 100 to 500 | Cc1nc(-c2nnn(C)c2COc2nccc(C3CCC3)n2)ccc1C1CC(CC(=O)O)CCO1 (centres unmarked) [Example 26, 2-(2-(6-(5-(((4-cyclobutylpyrimidin-2-yl)oxy)methyl)-1-methyl-11H-1,2,3-triazol-4-yl)-2-methylpyridin-3-yl)tetrahydro-2H-pyran-4-yl)acetic acid] |
| 500 to 5000 | CCCc1ccc(=O)n(Cc2c(-c3ccc(C4COCC(CC(=O)O)C4)c(C)n3)nnn2C)c1 (centres unmarked) [Example 29] |
| 500 to 5000 | CCCN(C)C(=O)OCc1c(-c2ccc(C3CCOC(CC(=O)O)C3)c(CC)n2)nnn1C (centres unmarked) [Example 30, 2-(4-{2-ethyl-6-[1-methyl-5-({[methyl(propyl)carbamoyl]oxy}methyl)-1H-1,2,3-triazol-4-yl]pyridin-3-yl}oxan-2-yl)acetic acid] |
| 100 to 500 | CCCc1ccc(=O)n(Cc2c(-c3ccc(C4CCCC(CC(=O)O)C4)c(C)n3)nnn2C)c1 (centres unmarked) [Example 38, 2-[3-(2-methyl-6-{1-methyl-5-[(2-oxo-5-propyl-1,2-dihydropyridin-1-yl)methyl]-1H-1,2,3-triazol-4-yl}pyridin-3-yl)cyclohexyl]acetic acid] |
| 100 to 500 | Cc1nc(-c2nnn(C)c2CN2CC(CC3CC3)N(C)C2=O)ccc1O[C@H]1CCC[C@H](C(=O)O)C1 (stereo partly drawn) [Example 42, (1S,3S)-3-((6-(5-((4-(cyclopropylmethyl)-3-methyl-2-oxoimidazolidin-1-yl)methyl)-1-methyl-1H-1,2,3-triazol-4-yl)-2-methylpyridin-3-yl)oxy)cyclohexane-1-carboxylic acid] |
| < 100 | CCCc1ccc(=O)n(Cc2c(-c3ccc(O[C@H]4CCC[C@H](C(=O)O)C4)c(CC)n3)nnn2C)c1 [Example 43, (1S,3S)-3-((2-ethyl-6-(1-methyl-5-((2-oxo-5-propylpyridin-1(2H)-yl)methyl)-1H-1,2,3-triazol-4-yl)pyridin-3-yl)oxy)cyclohexanecarboxylic acid] |

Further lines, the molecule ahead of its results:

| SMILES | IC50 [nM] |
| --- | --- |
| CCc1nc(-c2nnn(C)c2COc2nccc(C3CCC3)n2)ccc1N1CC[C@H]([C@H](C)C(=O)O)C1 [Example 11] | < 100 |
| CCCc1ccc(=O)n(Cc2c(-c3ccc(N4CC[C@@H]([C@@H](C)C(=O)O)C4)c(CC)n3)nnn2C)c1 [Example 12, (R)-2-((S)-1-(2-ethyl-6-(1-methyl-5-((2-oxo-5-propylpyridin-1(2H)-yl)methyl)-1H-1,2,3-triazol-4-yl)pyridin-3-yl)pyrrolidin-3-yl)propanoic acid] | 500 to 5000 |
| CCCc1ccc(=O)n(Cc2c(-c3ccc(N4CC[C@@H](C(C)(C)C(=O)O)C4)c(CC)n3)nnn2C)c1 [Example 14] | < 100 |
| CCCc1ccc(=O)n(Cc2c(-c3ccc(C4CC(CC(=O)O)CCO4)c(C)n3)nnn2C)c1 (centres unmarked) [Example 27, 2-[2-(2-methyl-6-{1-methyl-5-[(2-oxo-5-propyl-1,2-dihydropyridin-1-yl)methyl]-1H-1,2,3-triazol-4-yl}pyridin-3-yl)oxan-4-yl]acetic acid] | 500 to 5000 |
| Cc1nc(-c2nnn(C)c2COc2nccc(C3CCC3)n2)ccc1C1COCC(CC(=O)O)C1 (centres unmarked) [Example 28, 2-{5-[6-(5-{[(4-cyclobutylpyrimidin-2-yl)oxy]methyl}-1-methyl-1H-1,2,3-triazol-4-yl)-2-methylpyridin-3-yl]oxan-3-yl}acetic acid] | 100 to 500 |
| CCCc1ccc(=O)n(Cc2c(-c3ccc(C4CCOC(CC(=O)O)C4)c(CC)n3)nnn2C)c1 (centres unmarked) [Example 31, 2-(4-(2-ethyl-6-(1-methyl-5-((2-oxo-5-propylpyridin-1(2H)-yl)methyl)-1H-1,2,3-triazol-4-yl)pyridin-3-yl)tetrahydro-2H-pyran-2-yl)acetic acid] | 500 to 5000 |
| CCc1nc(-c2nnn(C)c2COc2nccc(C3CCC3)n2)ccc1C1CCOC(CC(=O)O)C1 (centres unmarked) [Example 32, 2-(4-(6-(5-(((4-cyclobutylpyrimidin-2-yl)oxy)methyl)-1-methyl-1H-1,2,3-triazol-4-yl)-2-ethylpyridin-3-yl)tetrahydro-2H-pyran-2-yl)acetic acid] | < 100 |
| CCc1nc(-c2nnn(C)c2COc2cc(-n3cccn3)ncn2)ccc1C1CCOC(CC(=O)O)C1 (centres unmarked) [Example 33, 2-(4-(6-(5-(((6-(1H-pyrazol-1-yl)pyrimidin-4-yl)oxy)methyl)-1-methyl-1H-1,2,3-triazol-4-yl)-2-ethylpyridin-3-yl)tetrahydro-2H-pyran-2-yl)acetic acid] | 100 to 500 |
| Cc1nc(-c2nnn(C)c2COc2nccc(C3CCC3)n2)ccc1C1CCCC(CC(=O)O)C1 (centres unmarked) [Example 39, 2-{3-[6-(5-{[(4-cyclobutylpyrimidin-2-yl)oxy]methyl}-1-methyl-1H-1,2,3-triazol-4-yl)-2-methylpyridin-3-yl]cyclohexyl}acetic acid] | < 100 |
| CCc1nc(-c2nnn(C)c2Cn2cc(CC3CC3)ccc2=O)ccc1O[C@H]1CCC[C@H](C(=O)O)C1 [Example 44, (1S,3S)-3-((6-(5-((5-(cyclopropylmethyl)-2-oxopyridin-1(2H)-yl)methyl)-1-methyl-1H-1,2,3-triazol-4-yl)-2-ethylpyridin-3-yl)oxy)cyclohexanecarboxylic acid] | < 100 |
